Experimental data as given in ChEMBL document CHEMBL1201862, “PubChem BioAssay data set” (2004).
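48-hour exposure; five concentrations; linearly interpolated endpoints. The concentration for 50% growth inhibition is given as GI50.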 Active and inactive are the calls of the source. Rule as the data show it: active = GI50 up to about 1.1 µM and inactive = higher.

Tests used:
Test in all cases: NCI tumour cell line growth inhibition, 48 h
[1] = test system: MDA-MB-435
[2] = test system: TK-10
[3] = test system: ACHN
[4] = test system: OVCAR-3
[5] = test system: SF-268
[6] = test system: NCI-H23
[7] = test system: U-251
[8] = test system: NCI-H460
[9] = test system: SK-OV-3
[10] = test system: SNB-75
[11] = test system: BT-549
[12] = test system: UACC-62
[13] = test system: LOX IMVI
[14] = test system: UO-31
[15] = test system: HCT-15
[16] = test system: KM12
[17] = test system: A498
[18] = test system: SK-MEL-2
[19] = test system: PC-3
[20] = test system: HOP-62
[21] = test system: MDA-MB-231
[22] = test system: SF-539
[23] = test system: NCI-H226
[24] = test system: UACC-257
[25] = test system: SW-620
[26] = test system: EKVX
[27] = test system: SK-MEL-5
[28] = test system: COLO 205
[29] = test system: Hs-578T
[30] = test system: IGROV-1
[31] = test system: SF-295
[32] = test system: HCT-116
[33] = test system: M14
[34] = test system: MCF7
[35] = test system: HL-60
[36] = test system: SK-MEL-28
[37] = test system: NCI-H522
[38] = test system: HT-29
[39] = test system: SNB-19
[40] = test system: A549
[41] = test system: CAKI-1
[42] = test system: OVCAR-5
[43] = test system: MDA-N
[44] = test system: SN12C
[45] = test system: OVCAR-4
[46] = test system: 786-0
[47] = test system: DU-145
[48] = test system: OVCAR-8
[49] = test system: HOP-92
[50] = test system: T47D
[51] = test system: CCRF-CEM
[52] = test system: K562
[53] = test system: RPMI-8226
[54] = test system: NCI/ADR-RES
[55] = test system: Malme-3M
[56] = test system: HCC 2998
[57] = test system: RXF 393
[58] = test system: SR
[59] = test system: MOLT-4

`N=C(N)N/N=C/c1c(-c2ccc(Cl)c(Cl)c2Cl)nc2sccn12` was tested, and the GI50 [1] was 1.85 µM (inactive), the GI50 [2] was 1.4 µM (inactive) and the GI50 [3] was 3.23 µM (inactive). For the same compound, the GI50 [4] was 1.57 µM (inactive), the GI50 [5] was 1.76 µM (inactive) and the GI50 [6] was 1.29 µM (inactive). The GI50 [7] was 1.2 µM (inactive), the GI50 [8] was 1.7 µM (inactive) and the GI50 [9] was 1.91 µM (inactive). The GI50 [10] was 1.49 µM (inactive), the GI50 [11] was 1.56 µM (inactive) and the GI50 [12] was 1.44 µM (inactive). The GI50 [13] was 1.64 µM (inactive), the GI50 [14] was 1.46 µM (inactive) and the GI50 [15] was 1.63 µM. For the same compound, the GI50 [16] was 1.58 µM (inactive), the GI50 [17] was 1.1 µM (active) and the GI50 [18] was 1.74 µM (inactive). The GI50 [19] was 2.72 µM (inactive), the GI50 [20] was 1.69 µM (inactive) and the GI50 [21] was 1.21 µM (inactive). The GI50 [22] was 3.33 µM (inactive), the GI50 [23] was 1.68 µM (inactive) and the GI50 [24] was 1.65 µM (inactive). For the same compound, the GI50 [25] was 1.69 µM (inactive), the GI50 [26] was 1.5 µM (inactive) and the GI50 [27] was 1.74 µM (inactive). The GI50 [28] was 1.42 µM (inactive), the GI50 [29] was 1.91 µM (inactive) and the GI50 [30] was 1.27 µM (inactive). The GI50 [31] was 1.79 µM (inactive), the GI50 [32] was 1.55 µM (inactive) and the GI50 [33] was 1.57 µM (inactive). The GI50 [34] was 2.05 µM (inactive), the GI50 [35] was 1.63 µM (inactive) and the GI50 [36] was 1.73 µM (inactive). The GI50 [37] was 1.23 µM (inactive), the GI50 [38] was 1.64 µM (inactive) and the GI50 [39] was 1.33 µM (inactive). For the same compound, the GI50 [40] was 1.53 µM (inactive), the GI50 [41] was 1.82 µM (inactive) and the GI50 [42] was 1.49 µM (inactive). For the same compound, the GI50 [43] was 1.59 µM (inactive), the GI50 [44] was 1.5 µM (inactive) and the GI50 [45] was 2.1 µM (inactive). The GI50 [46] was 1.41 µM (inactive), the GI50 [47] was 1.7 µM (inactive) and the GI50 [48] was 1.71 µM (inactive). For the same compound, the GI50 [49] was 1.44 µM (inactive) and the GI50 [50] was 1.59 µM (inactive).

With `CC12CC(=O)Nc3ccccc3N1C(c1ccccc1)=NO2` (centres undefined) the GI50 [1] was > 100 µM (inactive), the GI50 [2] was > 100 µM (inactive) and the GI50 [3] was > 100 µM (inactive). The GI50 [4] was > 100 µM (inactive), the GI50 [5] was > 100 µM (inactive) and the GI50 [6] was > 100 µM (inactive). For the same compound, the GI50 [51] was > 100 µM (inactive), the GI50 [7] was > 100 µM (inactive) and the GI50 [8] was > 100 µM (inactive). For the same compound, the GI50 [9] was > 100 µM (inactive), the GI50 [10] was > 100 µM (inactive) and the GI50 [11] was > 100 µM (inactive). The GI50 [12] was > 100 µM (inactive), the GI50 [14] was > 100 µM (inactive) and the GI50 [15] was > 100 µM. For the same compound, the GI50 [16] was > 100 µM (inactive), the GI50 [17] was > 100 µM (inactive) and the GI50 [52] was > 100 µM (inactive). The GI50 [18] was > 100 µM (inactive), the GI50 [19] was > 100 µM (inactive) and the GI50 [20] was > 100 µM (inactive). The GI50 [21] was > 100 µM (inactive), the GI50 [22] was > 100 µM (inactive) and the GI50 [23] was > 100 µM (inactive). The GI50 [53] was > 100 µM (inactive), the GI50 [24] was > 100 µM (inactive) and the GI50 [25] was > 100 µM (inactive). The GI50 [26] was > 100 µM (inactive), the GI50 [27] was > 100 µM (inactive) and the GI50 [28] was > 100 µM (inactive). For the same compound, the GI50 [29] was > 100 µM (inactive), the GI50 [30] was > 100 µM (inactive) and the GI50 [31] was > 100 µM (inactive). The GI50 [32] was > 100 µM (inactive), the GI50 [33] was > 100 µM (inactive) and the GI50 [34] was > 100 µM (inactive). The GI50 [54] was > 100 µM (inactive), the GI50 [35] was > 100 µM (inactive) and the GI50 [37] was > 100 µM (inactive). The GI50 [38] was > 100 µM (inactive), the GI50 [55] was > 100 µM (inactive) and the GI50 [39] was > 100 µM (inactive). The GI50 [40] was > 100 µM (inactive), the GI50 [41] was > 100 µM (inactive) and the GI50 [56] was > 100 µM (inactive). For the same compound, the GI50 [42] was > 100 µM (inactive), the GI50 [43] was > 100 µM (inactive) and the GI50 [44] was > 100 µM (inactive). The GI50 [45] was > 100 µM (inactive), the GI50 [57] was > 100 µM (inactive) and the GI50 [46] was > 100 µM (inactive). For the same compound, the GI50 [47] was > 100 µM (inactive), the GI50 [48] was > 100 µM (inactive) and the GI50 [49] was > 100 µM (inactive). For the same compound, the GI50 [58] was > 100 µM (inactive) and the GI50 [59] was > 100 µM (inactive).

`O=C1c2ccccc2C(=O)c2c(NC(=O)C3CC3)ccc(NC(=O)C3CC3)c21` was tested, and the GI50 [1] was > 100 µM (inactive), the GI50 [2] was > 100 µM (inactive) and the GI50 [3] was 58.2 µM (inactive). For the same compound, the GI50 [4] was > 100 µM (inactive), the GI50 [6] was > 100 µM (inactive) and the GI50 [7] was 91.2 µM (inactive). For the same compound, the GI50 [8] was > 100 µM (inactive), the GI50 [11] was > 100 µM (inactive) and the GI50 [12] was 26.9 µM (inactive). The GI50 [13] was > 100 µM (inactive), the GI50 [14] was > 100 µM (inactive) and the GI50 [15] was > 100 µM. The GI50 [16] was > 100 µM (inactive), the GI50 [17] was > 100 µM (inactive) and the GI50 [52] was > 100 µM (inactive). The GI50 [18] was > 100 µM (inactive), the GI50 [19] was > 100 µM (inactive) and the GI50 [20] was > 100 µM (inactive). For the same compound, the GI50 [21] was > 100 µM (inactive), the GI50 [22] was > 100 µM (inactive) and the GI50 [53] was > 100 µM (inactive). The GI50 [24] was > 100 µM (inactive), the GI50 [25] was > 100 µM (inactive) and the GI50 [26] was > 100 µM (inactive). The GI50 [27] was > 100 µM (inactive), the GI50 [28] was > 100 µM (inactive) and the GI50 [29] was > 100 µM (inactive). For the same compound, the GI50 [30] was > 100 µM (inactive), the GI50 [31] was 33.4 µM (inactive) and the GI50 [32] was > 100 µM (inactive). The GI50 [34] was 83.2 µM (inactive), the GI50 [54] was > 100 µM (inactive) and the GI50 [35] was 95.7 µM (inactive). For the same compound, the GI50 [36] was > 100 µM (inactive), the GI50 [37] was 65.8 µM (inactive) and the GI50 [38] was > 100 µM (inactive). For the same compound, the GI50 [55] was 61.2 µM (inactive), the GI50 [39] was > 100 µM (inactive) and the GI50 [40] was > 100 µM (inactive). The GI50 [56] was > 100 µM (inactive), the GI50 [42] was > 100 µM (inactive) and the GI50 [43] was > 100 µM (inactive). For the same compound, the GI50 [44] was > 100 µM (inactive), the GI50 [46] was 61.7 µM (inactive) and the GI50 [48] was > 100 µM (inactive). For the same compound, the GI50 [58] was > 100 µM (inactive), the GI50 [59] was > 100 µM (inactive) and the GI50 [50] was > 100 µM (inactive).
